In data set [1] the target is T1, C-C chemokine receptor type 5 (Homo sapiens, UniProt P51681). Put plainly: Displacement of [125I]-MIP-1 alpha from human C-C chemokine receptor type 5 expressed in CHO cells. The format is cell-based. Background: In a radioligand displacement assay an active substance lowers the binding of a labelled ligand.
Data set [2] in a line: Bioavailability in rat after 4-10 mg/kg oral dosage; n=3. The format is ADME, organism-based. The following applies: in vivo.
The nature of data set [3]: Area under the plasma concentration curve was determined at 0-6 hours in rat after ~2 mg/kg oral dosage; n=2.
Data set [4] is described as follows: Clearance in rat after 1 mg/kg i.v. dosage; n=3. The following applies: in vivo, iv.
Data set [5] in a line: In vitro intrinsic clearance against rat hepatocytes.
A short description of data set [6]: Ability to inhibit the chemotaxis of human AlloT cells in response to MIP-1beta. Type of data set: functional, cell-based.
Data set [7] concerns the target T1, C-C chemokine receptor type 5. Description: Inhibition of MIP-1beta stimulated calcium transients in CCR5-expressing CHO cells. The format is functional, cell-based.

A value given as a limit tells only on which side of the number the result lay.

T1 sequence (P51681 whole entry): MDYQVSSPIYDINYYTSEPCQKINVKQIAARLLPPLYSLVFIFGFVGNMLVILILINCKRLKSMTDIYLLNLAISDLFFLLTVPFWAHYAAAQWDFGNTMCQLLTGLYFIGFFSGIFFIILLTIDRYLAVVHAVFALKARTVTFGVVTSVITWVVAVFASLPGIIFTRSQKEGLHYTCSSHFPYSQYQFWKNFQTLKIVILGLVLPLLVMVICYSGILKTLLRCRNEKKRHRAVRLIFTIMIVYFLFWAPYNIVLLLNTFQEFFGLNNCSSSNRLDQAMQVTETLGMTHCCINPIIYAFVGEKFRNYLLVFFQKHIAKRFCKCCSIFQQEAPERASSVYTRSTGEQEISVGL

Regarding `C=CCN(C(=O)Cc1ccc(S(C)(=O)=O)cc1)C1CCN(CCC(c2ccccc2)c2ccccc2)CC1`, in data set [1], the IC50 (commonly the concentration that gives 50% inhibition) was found to be 13 nM. Further, the bioavailability (usually the share of a dose that reaches the circulation, judged against a reference dose that is usually intravenous) in data set [2] turned out to be 11%. For the same compound, in data set [3], the exposure (AUC) (commonly concentration integrated over time) at 6 h stood at 0.132 µM·h. For the same compound, the clearance (as a rule, a measure of how efficiently the substance is removed, as volume per time) in data set [4] came out at 54 mL/min/kg. The same compound returned a Clint in data set [5] of 54 uL/min/10e6 cells. `CS(=O)(=O)c1ccc(CC(=O)N(C2CC2)C2CCN(CCC(c3ccccc3)c3ccccc3)CC2)cc1` yielded a concentration for half-maximal inhibition (IC50) in data set [1] of 32 nM. `CCN(C(=O)Cc1ccc(S(C)(=O)=O)cc1)C1CCN(CCC(c2ccccc2)c2ccc(C(F)(F)F)cc2)CC1` (stereo not given) returned a half-maximal inhibitory concentration (IC50) in data set [1] of 2.3 nM. The compound also registered a Clint in data set [5] of 37 uL/min/10e6 cells. The corresponding values for `CCN(C(=O)Cc1ccc(S(C)(=O)=O)cc1)C1CCN(CCC(c2ccccc2)c2ccc(C(=O)OC)cc2)CC1` (stereo not given) are 7.1 nM and over 150 uL/min/10e6 cells. Compound `CCN(C(=O)Cc1ccc(S(C)(=O)=O)cc1)C1CCN(CCC(c2ccccc2)c2ccc(C)cc2)CC1` (stereo not given) yielded an IC50 in data set [1] of 28 nM. In turn, `CCN(C(=O)Cc1ccc(S(C)(=O)=O)cc1)C1CCN(CCC(c2ccccc2)c2cccc(Cl)c2)CC1` (stereo not given) displayed an IC50 in data set [1] of 58 nM. For the compound `CCN(C(=O)Cc1ccc(S(C)(=O)=O)cc1)C1CCN(CCC(c2ccccc2)c2ccc(NS(C)(=O)=O)cc2)CC1` (stereo not given), the figures for the IC50 in data set [1], in data set [6] and in data set [7] were 18 nM, 31 nM and 24 nM, respectively. `CCN(C(=O)Cc1ccc(S(C)(=O)=O)cc1)C1CCN(CCC(c2ccccc2)c2ccc(Cl)cc2)CC1` (stereo not given): the IC50 in data set [1] is 8.5 nM. In data set [2], the bioavailability was 3%. In data set [4], the clearance amounted to 46 mL/min/kg. Besides, the Clint in data set [5] is reported as 34 uL/min/10e6 cells. `CCN(C(=O)Cc1ccc(S(C)(=O)=O)cc1)C1CCN(CCC(c2ccccc2)c2ccc(NC(C)=O)cc2)CC1` (stereo not given) came in with an IC50 in data set [1] of 26 nM. Still for that read-out and setting: the value for `CCN(C(=O)Cc1ccc(S(C)(=O)=O)cc1)C1CCN(CCC(c2ccccc2)c2ccc(C#N)cc2)CC1` (stereo not given) was under 1 nM; that for `CCN(C(=O)Cc1ccc(S(C)(=O)=O)cc1)C1CCN(CCC(c2ccccc2)c2ccc(C(N)=O)cc2)CC1` (stereo not given) was 260 nM.

In data set [1], `CCN(C(=O)Cc1ccc(S(C)(=O)=O)cc1)C1CCN(CCC(c2ccccc2)c2ccc(NS(=O)(=O)c3ccccc3)cc2)CC1` (stereo not given) came in with a concentration for half-maximal inhibition (IC50) of 740 nM. In turn, `CCN(C(=O)Cc1ccc(S(C)(=O)=O)cc1)C1CCN(CCC(c2ccccc2)c2ccc(NC(=O)Cc3ccccc3)cc2)CC1` (stereo not given) showed a concentration for half-maximal inhibition (IC50) in data set [1] of 5.9 nM. The AUC at 6 h in data set [3] came to 0.012 µM·h.

Compound `CCN(C(=O)Cc1ccc(S(C)(=O)=O)cc1)C1CCN(CCC(c2ccccc2)c2ccc(NC(=O)c3ccccc3)cc2)CC1` (stereo not given) returned a half-maximal inhibitory concentration (IC50) in data set [1] of 130 nM.

`CCN(C(=O)Cc1ccc(S(C)(=O)=O)cc1)C1CCN(CCC(c2ccc(F)cc2)c2ccc(F)cc2)CC1` came in with an IC50 in data set [1] of 780 nM. In addition, the bioavailability in data set [2] came to 56%. In data set [3], this compound had an AUC at 6 h of 1.87 µM·h. The clearance in data set [4] is 10 mL/min/kg. Moreover, the Clint in data set [5] worked out at 4 uL/min/10e6 cells. In the case of `CCN(C(=O)Cc1ccc(S(C)(=O)=O)cc1)C1CCN(CCC(c2ccccc2)c2ccc(F)cc2)CC1` (stereo not given), the 50% inhibitory concentration (IC50) in data set [1] worked out at 310 nM. The same measure, in the same setting: with `CCN(C(=O)Cc1ccc(S(C)(=O)=O)cc1)C1CCN(CCC(c2ccc(NC(=O)OC(C)(C)C)cc2)c2cccc(F)c2)CC1` (stereo not given) the figure was 89 nM; with `CCN(C(=O)Cc1ccc(S(C)(=O)=O)cc1)C1CCN(CCC(c2ccccc2)c2ccccc2)CC1`, 18 nM. In the case of `CCN(C(=O)Cc1ccc(S(C)(=O)=O)cc1)C1CCN(CCC(c2ccccc2)c2ccc(N)cc2)CC1` (stereo not given), the concentration for half-maximal inhibition (IC50) in data set [1] was found to be 200 nM. Still for that read-out and setting: the value for `CCN(C(=O)Cc1ccc(S(C)(=O)=O)cc1)C1CCN(CCC(c2ccccc2)c2ccc(NC(=O)C(C)(C)C)cc2)CC1` (stereo not given) was 22 nM. In turn, `CCN(C(=O)Cc1ccc(S(C)(=O)=O)cc1)C1CCN(CCC(c2ccc(NC(C)=O)cc2)c2cccc(F)c2)CC1` (stereo not given) yielded an IC50 in data set [1] of 7.9 nM. The same compound gave an AUC at 6 h in data set [3] of 0.008 µM·h. Also, in data set [5], the Clint is 17 uL/min/10e6 cells.

`CCN(C(=O)Cc1ccc(S(C)(=O)=O)cc1)C1CCN(CCC(c2ccc(Cl)cc2)c2cccc(F)c2)CC1` (stereo not given): the IC50 in data set [1] stood at 19 nM.

Regarding `CCN(C(=O)Cc1ccc(S(C)(=O)=O)cc1)C1CCN(CCC(c2ccccc2)c2ccc(OC)cc2)CC1` (stereo not given), in data set [1], the half-inhibitory concentration (IC50) stood at 6.3 nM. For the same compound, the Clint in data set [5] stood at 41 uL/min/10e6 cells. Compound `CCN(C(=O)Cc1ccc(S(C)(=O)=O)cc1)C1CCN(CCC(c2ccccc2)c2ccc(Cl)c(Cl)c2)CC1` (stereo not given) returned an IC50 in data set [1] of 78 nM. Still for that read-out and setting: with `CCN(C(=O)Cc1ccc(S(C)(=O)=O)cc1)C1CCN(CCC(c2ccccc2)c2ccc(SC)cc2)CC1` (stereo not given) the figure was 12 nM; with `CCN(C(=O)Cc1ccc(S(C)(=O)=O)cc1)C1CCN(CCC(c2ccccc2)c2ccc(-c3ccccc3)cc2)CC1` (stereo not given), 85 nM; with `CCN(C(=O)Cc1ccc(S(C)(=O)=O)cc1)C1CCN(CCC(c2ccccc2)c2ccc(NS(=O)(=O)Cc3ccccc3)cc2)CC1` (stereo not given), 11 nM.

`CCN(C(=O)Cc1ccc(S(C)(=O)=O)cc1)C1CCN(CCC(c2ccc(Cl)cc2)c2ccc(Cl)cc2)CC1`: the IC50 in data set [1] turned out to be 760 nM. For `CCN(C(=O)Cc1ccc(S(C)(=O)=O)cc1)C1CCN(CCC(c2ccc(NS(C)(=O)=O)cc2)c2cccc(F)c2)CC1` (stereo not given), the AUC at 6 h in data set [3] stood at 0.002 µM·h. In data set [5], this compound registered a Clint of 15 uL/min/10e6 cells.

In turn, `CCN(C(=O)Cc1ccc(S(C)(=O)=O)cc1)C1CCN(CCC(c2ccccc2)c2ccc(NC(=O)OC(C)(C)C)cc2)CC1` (stereo not given) registered a half-inhibitory concentration (IC50) in data set [1] of 200 nM.
